{"source": "patent US8097625B2", "about": "“Combination of sedative and a neurotransmitter modulator, and methods for improving sleep quality and treating depression” (priority 2003, dated 2012)", "tested_on": "subjects with insomnia related to major depressive disorder", "experiment": "DREAMDD clinical study: Hamilton Depression Rating Scale (HAMD17)", "type": "in vivo, human", "experimental": "The change from baseline to each double-blind, post-treatment visit in the HAM-D-17 score as well as the change from baseline to each double-blind, weekly, post-treatment assessments in the HAM-D-6 (Bech) scores and HAM-D-6 (Maier) scores was presented descriptively (n, mean, median, standard deviation, minimum, 25th percentile, median, 75th percentile, and maximum) by treatment. Treatment comparisons were performed at each assessed time point. The analysis compared the eszopiclone 3 mg group to placebo using an analysis of variance model (ANOVA) with treatment and site as fixed effects. The analysis was performed using the SAS MIXED procedure.\nHamilton Depression Rating Scale (HAM-D17): During this analysis, a medical professional evaluates the patient according to seventeen criteria by selecting the response that best characterizes the patient's behavior during the past week. The criteria and responses are based on that described in Br. J. Soc. Clin. Psychol. 6: 278-296 (1967) and are reproduced below. Question 1: Depressed mood (Sadness, hopeless, helpless, worthless); Response: 0—Absent, 1—These feeling states indicated only on questioning, 2—These feeling states spontaneously reported verbally, 3—Communicates feeling states non-verbally i.e., through facial expression, posture, voice, and tendency to weep, or 4—Patient report virtually only these feeling states in their spontaneous verbal and non-verbal communication. Question 2: Feeling of guilt; Response: 0—Absent, 1—Self reproach, feels they have let people down, 2—Ideas of guilt or rumination over past errors or sinful deeds, 3—Present illness is a punishment and/or has delusions of guilt, or 4—Hears accusatory or denunciatory voices and/or experiences threatening visual hallucinations. Question 3: Suicide; Response: 0—Absent, 1—Feels life is not worth living, 2—Wishes they were dead or any thoughts of possible death to self, 3—Suicide ideas or gesture, 4-Attempts at suicide (any serious attempt rates 4). Question 4: Insomnia early; Response: 0—No difficulty falling asleep; 1—Complains of occasional difficulty falling asleep—i.e., more than ½ hour; or 2—complains of nightly difficulty falling asleep. Question 5: Insomnia middle; Response: 0—No difficulty, 1—patient complains of being restless and disturbed during the night, or 2—Waking during the night—any getting out of bed rates 2 (except for purposes of voiding). Question 6: Insomnia Late; Response: 0—No difficulty, 1—Waking in early hours of the morning but goes back to sleep, or 2—Unable to fall asleep again if they get out of bed. […] Question 8: Retardation (Slowness of thought and speech; impaired ability to concentrate; decreased motor activity); Response: 0—Normal speech and thought, 1—Slight retardation at interview, 2—Obvious retardation at interview, 3—Interview difficult, or 4—Complete stupor. Question 9: Agitation; Response: 0—None; 1—Fidgetiness; 2—Playing with hands, hair, etc.; 3—Moving about, can't sit still; or 4—Hand wringing, nail biting, hair-pulling, biting of lips. Question 10: Anxiety psychic: 0—No difficulty, 1—Subjective tension and irritability, 2—Worrying about minor matters, 3—Apprehensive attitude apparent in face or speech, or 4—Fears expressed without questioning. Question 11: Anxiety somatic (Physiological concomitants of anxiety, such as:—Gastro-intestinal: dry mouth, wind, indigestion, diarrhea, cramps, belching.—Cardio-vascular: palpitations, headaches.—Respiratory: hyperventilation, sighing.—Urinary frequency—Sweating); Response: 0—Absent, 1—Mild, 2—Moderate, 3—Severe, or 4—Incapacitating. Question 12: Somatic symptoms gastro-intestinal; Response: 0—None, 1—Loss of appetite but eating without staff encouragement and/or heavy feelings in abdomen; or 2—Difficulty eating without staff urging and/or requests or requires laxatives or medication for bowels or medication for gastro-intestinal symptoms. […]"}
{"compound": "CN1CCN(C(=O)OC2c3nccnc3C(=O)N2c2ccc(Cl)cn2)CC1", "note": "(single isomer, unassigned; (+)) [Eszopiclone, (+) 6-(5-chloro-2-pyridinyl)-6,7-dihydro-7-oxo-5H-pyrrolo[3,4b]pyrazin-5-yl 4-methylpiperazine-1-carboxylate]", "values": [{"measurement": "HAMD 17 differences in patients with more severe depression (baseline HAMD 17≧22)", "setting": "3 mg nightly + fluoxetine vs placebo", "result": "greater"}, {"measurement": "changes in HAMD17 scores", "setting": "Week 4, p=0.02 vs placebo, 3 mg nightly + fluoxetine 20 mg QAM", "result": "−9.9"}, {"measurement": "changes in HAMD17 scores", "setting": "Week 8, p<0.001 vs placebo, 3 mg nightly + fluoxetine", "result": "−13.8"}, {"measurement": "responders (50% decrease from baseline HAMD17)", "setting": "Week 8, p<0.009 vs placebo, 3 mg nightly + fluoxetine", "result": 74, "unit": "%"}, {"measurement": "remitters (HAMD17≦7)", "setting": "Week 8, p<0.02 vs placebo, 3 mg nightly + fluoxetine", "result": 54, "unit": "%"}, {"measurement": "HAMD17 with removal of insomnia items, versus placebo", "setting": "Week 8, p<0.03, 3 mg nightly + fluoxetine", "result": "significant differences"}, {"measurement": "augmentation effect versus agents currently used for augmentation therapy, such as lithium", "setting": "co-administration with fluoxetine", "result": "larger"}, {"measurement": "augmentation effect by severity of depression", "setting": "end of the 8 week treatment period", "result": "most pronounced in the most severely depressed patients"}]}
